One experiment relates to Mus musculus. Kind of experiment: Inhibition of apomorphine-induced climbing in ip dosed Swiss Webster mouse. Type of experiment: functional.
In experiment [1] the target is T1, Alpha-2C adrenergic receptor (Homo sapiens, UniProt P18825).
T1 sequence (P18825 whole entry): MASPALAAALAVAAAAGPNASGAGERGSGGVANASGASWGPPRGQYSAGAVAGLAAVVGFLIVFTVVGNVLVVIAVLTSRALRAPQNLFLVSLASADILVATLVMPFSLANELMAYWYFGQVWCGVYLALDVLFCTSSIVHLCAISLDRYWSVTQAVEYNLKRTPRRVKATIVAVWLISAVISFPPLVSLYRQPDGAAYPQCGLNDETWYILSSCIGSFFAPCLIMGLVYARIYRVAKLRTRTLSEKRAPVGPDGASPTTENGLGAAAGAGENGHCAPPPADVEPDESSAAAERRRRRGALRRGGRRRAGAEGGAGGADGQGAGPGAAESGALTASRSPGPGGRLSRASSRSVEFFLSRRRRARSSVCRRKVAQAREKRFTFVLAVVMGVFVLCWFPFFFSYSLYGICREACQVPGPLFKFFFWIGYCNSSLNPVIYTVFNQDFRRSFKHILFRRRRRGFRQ
Briefly: Binding affinity to human cloned adrenergic alpha-2C receptor by radioligand binding assay.

Experiment [2] deals with T2, Alpha-2A adrenergic receptor (Homo sapiens, UniProt P08913).
T2 sequence (P08913 whole entry): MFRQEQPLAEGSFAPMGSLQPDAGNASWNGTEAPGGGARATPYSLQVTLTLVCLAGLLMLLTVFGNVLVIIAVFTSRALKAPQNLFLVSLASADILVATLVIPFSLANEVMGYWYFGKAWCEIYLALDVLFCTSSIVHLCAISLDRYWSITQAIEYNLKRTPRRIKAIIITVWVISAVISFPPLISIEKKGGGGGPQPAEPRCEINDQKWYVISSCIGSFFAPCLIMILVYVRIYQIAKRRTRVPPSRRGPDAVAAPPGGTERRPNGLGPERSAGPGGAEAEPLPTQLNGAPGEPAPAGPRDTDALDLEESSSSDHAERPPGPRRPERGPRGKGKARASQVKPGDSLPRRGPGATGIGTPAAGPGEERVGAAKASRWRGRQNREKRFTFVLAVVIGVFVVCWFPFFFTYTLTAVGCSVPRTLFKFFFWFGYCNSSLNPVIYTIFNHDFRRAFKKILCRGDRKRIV
Briefly: Binding affinity to human cloned adrenergic alpha-2A receptor by radioligand binding assay.

The target in experiment [3] is T3, Alpha-2B adrenergic receptor (Homo sapiens, UniProt P18089).
T3 sequence (P18089 whole entry): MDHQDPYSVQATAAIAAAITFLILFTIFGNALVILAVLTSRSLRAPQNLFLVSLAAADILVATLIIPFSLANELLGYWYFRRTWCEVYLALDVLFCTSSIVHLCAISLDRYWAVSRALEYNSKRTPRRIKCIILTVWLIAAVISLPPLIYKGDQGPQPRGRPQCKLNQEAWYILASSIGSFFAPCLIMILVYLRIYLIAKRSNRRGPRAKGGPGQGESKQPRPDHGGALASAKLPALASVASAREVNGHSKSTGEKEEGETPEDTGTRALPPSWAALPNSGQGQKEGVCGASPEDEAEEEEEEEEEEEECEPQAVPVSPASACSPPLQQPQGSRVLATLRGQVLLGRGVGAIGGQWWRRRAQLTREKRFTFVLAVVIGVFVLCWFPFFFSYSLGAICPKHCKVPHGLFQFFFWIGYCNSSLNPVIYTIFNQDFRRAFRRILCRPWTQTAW
Kind of experiment: Binding affinity to human cloned adrenergic alpha-2B receptor by radioligand binding assay.

In experiment [4] the target is T4, Alpha-1B adrenergic receptor (Homo sapiens, UniProt P35368).
T4 sequence (P35368 whole entry): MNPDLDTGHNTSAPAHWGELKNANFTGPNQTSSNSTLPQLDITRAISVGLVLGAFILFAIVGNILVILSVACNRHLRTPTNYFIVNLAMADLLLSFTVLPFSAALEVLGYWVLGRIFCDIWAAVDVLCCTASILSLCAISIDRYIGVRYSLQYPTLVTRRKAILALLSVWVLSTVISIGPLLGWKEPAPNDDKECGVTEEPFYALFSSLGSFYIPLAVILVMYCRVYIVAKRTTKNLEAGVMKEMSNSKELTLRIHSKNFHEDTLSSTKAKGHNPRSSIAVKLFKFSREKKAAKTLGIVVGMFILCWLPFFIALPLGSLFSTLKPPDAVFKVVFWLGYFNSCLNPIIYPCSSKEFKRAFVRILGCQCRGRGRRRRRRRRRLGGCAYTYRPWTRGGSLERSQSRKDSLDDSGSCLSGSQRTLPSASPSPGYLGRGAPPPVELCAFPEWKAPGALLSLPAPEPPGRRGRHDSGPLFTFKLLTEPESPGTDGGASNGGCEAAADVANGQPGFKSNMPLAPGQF
Kind of experiment: Binding affinity to human cloned adrenergic alpha-1B receptor by radioligand binding assay.

The target of experiment [5] is T5, Alpha-1A adrenergic receptor (Homo sapiens, UniProt P35348).
T5 sequence (P35348 whole entry): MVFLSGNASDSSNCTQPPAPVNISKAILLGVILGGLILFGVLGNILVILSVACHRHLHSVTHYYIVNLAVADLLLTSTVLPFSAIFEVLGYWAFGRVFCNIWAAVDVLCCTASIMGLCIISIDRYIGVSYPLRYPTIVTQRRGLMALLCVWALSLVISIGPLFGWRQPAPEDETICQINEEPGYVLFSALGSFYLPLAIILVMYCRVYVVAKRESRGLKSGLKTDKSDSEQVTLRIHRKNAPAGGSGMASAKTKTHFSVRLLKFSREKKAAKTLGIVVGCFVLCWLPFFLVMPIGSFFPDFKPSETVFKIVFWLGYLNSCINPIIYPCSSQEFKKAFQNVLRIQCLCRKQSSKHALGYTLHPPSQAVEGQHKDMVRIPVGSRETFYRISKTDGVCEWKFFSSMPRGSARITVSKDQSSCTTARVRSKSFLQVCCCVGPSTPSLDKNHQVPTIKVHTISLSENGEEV
Kind of experiment: Binding affinity to human cloned adrenergic alpha-1A receptor by radioligand binding assay.

Experiment [6] addresses T6, 5-hydroxytryptamine receptor 1A (Homo sapiens, UniProt P08908).
T6 sequence (P08908 whole entry): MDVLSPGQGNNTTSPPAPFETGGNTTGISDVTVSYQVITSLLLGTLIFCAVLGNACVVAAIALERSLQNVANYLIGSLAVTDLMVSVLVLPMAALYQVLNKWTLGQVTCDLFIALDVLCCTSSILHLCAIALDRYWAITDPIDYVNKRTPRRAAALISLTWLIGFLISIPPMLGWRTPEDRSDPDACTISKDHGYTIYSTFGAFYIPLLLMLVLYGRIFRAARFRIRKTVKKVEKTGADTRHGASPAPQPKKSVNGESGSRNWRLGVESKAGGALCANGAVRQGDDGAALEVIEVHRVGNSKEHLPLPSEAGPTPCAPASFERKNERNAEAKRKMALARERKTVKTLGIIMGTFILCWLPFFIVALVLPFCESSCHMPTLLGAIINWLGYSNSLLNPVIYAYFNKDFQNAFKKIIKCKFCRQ
Briefly: Binding affinity to human cloned 5HT1A receptor by radioligand binding assay.

The target in experiment [7] is T7, 5-hydroxytryptamine receptor 2C (Homo sapiens, UniProt P28335).
T7 sequence (P28335 whole entry): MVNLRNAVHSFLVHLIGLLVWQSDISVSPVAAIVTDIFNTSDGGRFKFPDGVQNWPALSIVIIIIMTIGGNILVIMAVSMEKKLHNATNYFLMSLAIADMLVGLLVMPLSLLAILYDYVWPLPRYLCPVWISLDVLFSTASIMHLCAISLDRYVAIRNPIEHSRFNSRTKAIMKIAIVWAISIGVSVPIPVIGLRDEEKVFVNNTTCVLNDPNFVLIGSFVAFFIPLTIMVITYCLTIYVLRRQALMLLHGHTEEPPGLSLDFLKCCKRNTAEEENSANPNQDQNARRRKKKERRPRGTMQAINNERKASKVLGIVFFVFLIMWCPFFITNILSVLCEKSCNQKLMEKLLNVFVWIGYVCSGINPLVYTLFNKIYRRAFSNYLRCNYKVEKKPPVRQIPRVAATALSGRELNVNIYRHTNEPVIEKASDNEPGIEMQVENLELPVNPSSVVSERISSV
Briefly: Binding affinity to human cloned 5HT2C receptor by radioligand binding assay.

For orientation: ED50 means the midpoint of the dose-response relation. A high value points to weaker potency. With `O=C(CCCN1CCC(O)(c2ccc(Cl)cc2)CC1)c1ccc(F)cc1` [HALOPERIDOL], in the experiment with Mus musculus, the 50% effect level (ED50) was put at a dose of 0.007 mg/kg.

Usually Ki stands for the equilibrium dissociation constant of an inhibitor or competing ligand from its target. Higher therefore signals lower affinity. Regarding `O=C(CCCN1C2CCC1CC(O)(c1ccc(Cl)cc1)C2)c1ccc(F)cc1` (stereo unspecified), the Ki in experiment [1] was determined as 143 nM; in experiment [2], 2830 nM; in experiment [3], 516 nM; in experiment [4], 42.7 nM; in experiment [5], 39.3 nM.

As for `O=C(CCCN1CCC(O)(c2ccc(Cl)cc2)C1)c1ccc(F)cc1` (stereo in doubt; 2b), the inhibition constant (Ki) was 832 nM in experiment [6], 41.7 nM in experiment [4], 1250 nM in experiment [7] and 34 nM in experiment [5].

Compound `CN1CCN(C2=Nc3cc(Cl)ccc3Nc3ccccc32)CC1` [CLOZAPINE] gave an ED50 in the experiment on Mus musculus of 5.54 mg/kg.

For `O=C(CCCN1CCC(O)(c2ccc(Cl)cc2)C1)c1ccc(F)cc1` (single isomer, unassigned; (+)), in the experiment on Mus musculus, the ED50 amounted to 1.6 mg/kg. Further, the Ki in experiment [6] came to 722 nM; in experiment [4], 102 nM; in experiment [7], 3600 nM; in experiment [5], 115 nM.

The values are drawn from ChEMBL document CHEMBL1148503, “Evaluation of the eutomer of 4-{3-(4-chlorophenyl)-3-hydroxypyrrolidin-1-yl}-1-(4-fluorophenyl)butan-1-one, {(+)-SYA 09}, a pyrrolidine analog of haloperidol” (Bioorg Med Chem Lett, 2006).
